In US12594339B2, “Lipid prodrugs of JAK inhibitors and uses thereof” (Seaport Therapeutics, Inc., priority 2019, dated 2026):

Test: Lymphatic transport assay in mesenteric lymph-duct cannulated rats
Assay type: in vivo, rat
Conditions: intraduodenal infusion, anaesthetised mesenteric lymph-duct cannulated rats
Method: In order to assess the lymphatic transport of disclosed lipid prodrugs in rats, the mesenteric lymph ducts of the rats used in this study were cannulated to allow continual collection of mesenteric lymph. Lipid formulations containing the compound of interest were then administered to the animals, lymph was collected, and drug concentrations in the lymph samples were quantified.
Lipid-based formulations of the compounds of the invention or control compounds were prepared as previously described (Trevaskis, N. L. et al., Pharmaceutical Research, 2005, 22(11), 1863-1870, WO 2016/023082, and WO 2017/041139, hereby incorporated by reference).
In brief, either 1 or 2 mg of test prodrug, 40 mg oleic acid and 25 mg Tween 80 were mixed in a glass vial and incubated at 37° C. for 12-18 h to equilibrate. An aqueous phase consisting of 5.6 ml phosphate buffered saline (PBS, pH 7.4) was subsequently added to the lipid phase (tofacitinib was dissolved in PBS for the preparation of tofacitinib-containing formulations) and the formulation emulsified by ultrasonication with a Misonix XL 2020 ultrasonic processor (Misonix, Farmingdale, NY, USA) equipped with a 3.2-mm microprobe tip running at 30% of the maximal amplitude of 240 μm and a frequency of 20 kHz for 2 min at room temperature. Doses for administering to more than one animal can be prepared in one batch by suitably increasing the quantities given above. Drug/prodrug concentrations in all formulations were verified using HPLC-MS.
Male Sprague-Dawley (SD) rats were selected for the lymphatic transport studies. Rats (typically 240-320 g) were maintained on a standard diet and fasted overnight with free access to water prior to experiments.
Anesthetized rats were placed on a heated pad at 37° C. and cannulas inserted into the duodenum (for formulation administration and rehydration), mesenteric lymph duct (for lymph collection), and carotid artery (in cases where blood collection was conducted). Post-surgery, rats were re-hydrated for 0.5 h via intraduodenal infusion of normal saline at 2.8 mL/h. The lipid formulations were infused into the duodenum at 2.8 mL/h for 2 h after which, normal saline was infused at 2.8 mL/h for the remainder of the experiment. Lymph was continuously collected for up to 8 h into pre-weighed Eppendorf tubes containing 10 μL of 1,000 IU/mL heparin. The collection tubes were changed hourly and lymph flow was measured gravimetrically. Aliquots of hourly lymph samples were stored at −20° C. prior to assay.
For most compounds, drug concentration in lymph is expressed as total drug and includes free drug and drug associated with different glycerides. Lymph samples were first treated with a lipase or other appropriate conditions to liberate free active agent prior to measurement of active agent levels in the lymph. Treatment with a lipase or other hydrolysis conditions liberates free active agent from any corresponding re-esterified glycerides. Porcine pancreatic lipase is appropriate for this purpose. Alternatively, hydrolysis with 0.5 M NaOH may be used.
For certain compounds, drug concentration was measured for the intact lipid prodrug specifically, without exposing the lymph samples to hydrolysis conditions.
Transport of compounds into lymph during each hourly collection period was calculated from the product of the volume of lymph collected and the measured concentrations in lymph. For fluorescent or fluorescently-labelled compounds, the concentrations of total compound may be measured by fluorescence spectroscopy without hydrolysis.
Table 5 summarizes lymphatic transport of total tofacitinib related compound (% of administered dose) following intraduodenal infusion to anaesthetised, mesenteric lymph-duct cannulated rats. Data are presented as mean±SD when n≥3 or mean± range when n=2. […]

[1] = total tofacitinib related compound (lymph hydrolysed before assay), lymph collected up to 8 h
[2] = marked with asterisk: analytical procedure without a hydrolysis step (intact lipid prodrug)

SMILES	Cumulative lymphatic transport % dose [1]	other results
CCCCCCCCCCCCCCCC(=O)OCC(COC(=O)CCCCCCCCCCCCCCC)OC(=O)CC(C)CCCCCC(=O)n1ccc2c(N(C)[C@H]3CN(C(=O)CC#N)CC[C@H]3C)ncnc21 (stereo partly drawn) [I-7]	B (lymphatic transport assay result between 1% and 10% (1%-10%))	
CCCCCCCCCCCCCCCC(=O)OCC(COC(=O)CCCCCCCCCCCCCCC)OC(=O)CC(C)CCCCCCC(=O)n1ccc2c(N(C)[C@H]3CN(C(=O)CC#N)CC[C@H]3C)ncnc21 (stereo partly drawn) [I-9, 2-((10-(4-(((3R,4R)-1-(2-cyanoacetyl)-4-methylpiperidin-3-yl)(methyl)amino)-7H-pyrrolo[2,3-d]pyrimidin-7-yl)-3-methyl-10-oxodecanoyl)oxy)propane-1,3-diyl dipalmitate]		Cumulative lymphatic transport % dose [2]: B* (lymphatic transport assay result between 1% and 10% (1%-10%))
CCCCCCCCCCCCCCCC(=O)OCC(COC(=O)CCCCCCCCCCCCCCC)OC(=O)CC(C)CCCCCCCCCCCC(=O)n1ccc2c(N(C)[C@H]3CN(C(=O)CC#N)CC[C@H]3C)ncnc21 (stereo partly drawn) [I-10, 2-((15-(4-(((3R,4R)-1-(2-cyanoacetyl)-4-methylpiperidin-3-yl)(methyl)amino)-7H-pyrrolo[2,3-d]pyrimidin-7-yl)-3-methyl-15-oxopentadecanoyl)oxy)propane-1,3-diyl dipalmitate]	B (lymphatic transport assay result between 1% and 10% (1%-10%))	
CCCCCCCCCCCCCCCC(=O)OCC(COC(=O)CCCCCCCCCCCCCCC)OC(=O)CC(C)CCCCCCC(C)CC(=O)n1ccc2c(N(C)[C@H]3CN(C(=O)CC#N)CC[C@H]3C)ncnc21 (stereo partly drawn) [I-13, 2-((12-(4-(((3R,4R)-1-(2-cyanoacetyl)-4-methylpiperidin-3-yl)(methyl)amino)-7H-pyrrolo[2,3-d]pyrimidin-7-yl)-3,10-dimethyl-12-oxododecanoyl)oxy)propane-1,3-diyl dipalmitate]	A (lymphatic transport assay result of greater than 10% (>10%))	
CCCCCCCCCCCCCCCC(=O)OCC(COC(=O)CCCCCCCCCCCCCCC)OC(=O)CC(C)CCCCCCC(=O)Oc1c(C)cc(COC(=O)n2ccc3c(N(C)[C@H]4CN(C(=O)CC#N)CC[C@H]4C)ncnc32)cc1C (stereo partly drawn) [I-14, 10-(1,3-bis(palmitoyloxy)propan-2-yl) 1-(4-(((4-(((3R,4R)-1-(2-cyanoacetyl)-4-methylpiperidin-3-yl)(methyl)amino)-7H-pyrrolo[2,3-d]pyrimidine-7-carbonyl)oxy)methyl)-2,6-dimethylphenyl) 8-methyldecanedioate]	B (lymphatic transport assay result between 1% and 10% (1%-10%))	
CCCCCCCCCCCCCCCC(=O)OCC(COC(=O)CCCCCCCCCCCCCCC)OC(=O)CC(C)CCCCCCCC(C)C(=O)Oc1c(C)cc(COC(=O)n2ccc3c(N(C)[C@H]4CN(C(=O)CC#N)CC[C@H]4C)ncnc32)cc1C (stereo partly drawn) [I-15, 12-(1,3-bis(palmitoyloxy)propan-2-yl) 1-(4-(((4-(((3R,4R)-1-(2-cyanoacetyl)-4-methylpiperidin-3-yl)(methyl)amino)-7H-pyrrolo[2,3-d]pyrimidine-7-carbonyl)oxy)methyl)-2,6-dimethylphenyl) 2,10-dimethyldodecanedioate]	A (lymphatic transport assay result of greater than 10% (>10%))	
CCCCCCCCCCCCCCCC(=O)OCC(COC(=O)CCCCCCCCCCCCCCC)OC(=O)CC(C)CCCCCCCCC(=O)Oc1c(C)cc(COC(=O)n2ccc3c(N(C)[C@H]4CN(C(=O)CC#N)CC[C@H]4C)ncnc32)cc1C (stereo partly drawn) [I-16, 1-(1,3-bis(palmitoyloxy)propan-2-yl) 12-(4-(((4-(((3R,4R)-1-(2-cyanoacetyl)-4-methylpiperidin-3-yl)(methyl)amino)-7H-pyrrolo[2,3-d]pyrimidine-7-carbonyl)oxy)methyl)-2,6-dimethylphenyl) 3-methyldodecanedioate]	A (lymphatic transport assay result of greater than 10% (>10%))	
CCCCCCCC/C=C\CCCCCCCC(=O)OCC(COC(=O)CCCCCCC/C=C\CCCCCCCC)OC(=O)CC(C)CCCCCCCCCC(C)CC(=O)n1ccc2c(N(C)[C@H]3CN(C(=O)CC#N)CC[C@H]3C)ncnc21 (stereo partly drawn) [I-33, 2-((15-(4-(((3R,4R)-1-(2-cyanoacetyl)-4-methylpiperidin-3-yl)(methyl)amino)-7H-pyrrolo[2,3-d]pyrimidin-7-yl)-3,13-dimethyl-15-oxopentadecanoyl)oxy)propane-1,3-diyl dioleate]	A (lymphatic transport assay result of greater than 10% (>10%))	
CCCCCCCCCCCCCCCC(=O)OCC(COC(=O)CCCCCCCCCCCCCCC)OC(=O)CC(C)CCCCCCCCCCC(C)C(=O)n1ccc2c(N(C)[C@H]3CN(C(=O)CC#N)CC[C@H]3C)ncnc21 (stereo partly drawn) [I-39, 2-((15-(4-(((3R,4R)-1-(2-cyanoacetyl)-4-methylpiperidin-3-yl)(methyl)amino)-7H-pyrrolo[2,3-d]pyrimidin-7-yl)-3,14-dimethyl-15-oxopentadecanoyl)oxy)propane-1,3-diyl dipalmitate]		Cumulative lymphatic transport % dose [2]: A* (lymphatic transport assay result of greater than 10% (>10%))
CCCCCCCCCCCCCCCC(=O)OCC(COC(=O)CCCCCCCCCCCCCCC)OC(=O)CC(C)CC(=O)OC(C)OC(=O)n1ccc2c(N(C)[C@H]3CN(C(=O)CC#N)CC[C@H]3C)ncnc21 (stereo partly drawn) [I-40, 1-(1,3-bis(palmitoyloxy)propan-2-yl) 5-(1-((4-(((3R,4R)-1-(2-cyanoacetyl)-4-methylpiperidin-3-yl)(methyl)amino)-7H-pyrrolo[2,3-d]pyrimidine-7-carbonyl)oxy)ethyl) 3-methylpentanedioate]	D (lymphatic transport assay result of less than 0.05% (<0.05%))	
C[C@@H]1CCN(C(=O)CC#N)C[C@@H]1N(C)c1ncnc2[nH]ccc12 [Tofacitinib, tofacitinib, reference compound]		Cumulative lymphatic transport % dose (numeric value for parent drug): <0.3 % dose; Cumulative lymphatic transport % dose (numeric value for parent drug, listed as tofacitinib): < 0.3 % dose
